The results in this text go back to patent publication US10633419B2, “Immunomodulators” (BRISTOL-MYERS SQUIBB COMPANY, priority 2014, dated 2020).

Starred links: 1 amine or outer side, 2 acyl side, 3 side chain; linkers in the order of their positions; H or OH if unused. Positions of bridges follow the written chain, without caps; N, C: chain ends. Non-standard residues stand in square brackets, D forms with d. Residues, ends and D or L forms follow the SMILES beside them. *: point of attachment. Trp(1-CH2COOH) = N[C@@H](Cc1cn(CC(=O)O)c2ccccc12)C(=O)O; X26 = O=C(O)Cn1cc(CC(N[*:1])C(=O)[*:2])c2ccccc21; NH(CH2)16COOH = O=C(O)CCCCCCCCCCCCCCCCN*; NH(CH2)14COOH = O=C(O)CCCCCCCCCCCCCCN*; Hyp = O=C(O)[CH]1C[CH](O)CN1; X32 = O=C(O)CCCCCCCCCCCCCCCCCCN*; NMeNle = CCCC[CH](NC)C(=O)O; NMeA = CN[CH](C)C(=O)O; Dab = NCC[CH](N)C(=O)O; Dap = NC[CH](N)C(=O)O

In the first test the target is T1, PD-L1 (Homo sapiens, UniProt Q9NZQ7).
T1 construct: hPDL1(19-239)-TVMV-His; made in house; host or cells: HEK293T
T1 sequence (Q9NZQ7 with tags, fused parts or gaps): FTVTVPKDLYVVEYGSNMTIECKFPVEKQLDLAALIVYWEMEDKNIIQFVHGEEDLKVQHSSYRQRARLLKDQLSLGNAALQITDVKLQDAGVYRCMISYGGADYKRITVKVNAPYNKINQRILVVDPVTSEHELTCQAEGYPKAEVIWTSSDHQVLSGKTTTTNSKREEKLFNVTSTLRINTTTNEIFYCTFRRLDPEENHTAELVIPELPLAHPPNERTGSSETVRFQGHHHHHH
Briefly: PD-1/PD-L1 Homogenous Time-Resolved Fluorescence (HTRF) binding assay (PD-1-Ig/PD-L1-His). The following applies: inhibition of PD-1-Ig binding to PD-L1-TVMV-His; value given as number; read-out: HTRF IC50. Put shortly: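 Inhibitors pre-incubated 15 min with PD-L1-His (10 nM final), then PD-1-Ig (20 nM final) added for 15 min in dPBS/0.1% BSA/0.05% Tween-20. Eu-cryptate anti-Ig (1 nM) and APC anti-His (20 nM) added, 30 min equilibration, 665/620 nm HTRF ratio read.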
For `CCCCC1C(=O)N(C)C(CCCC)C(=O)NC(CC(C)C)C(=O)NC(C(=O)NCC(=O)NCCCCCCCCCCCCCCCCC(=O)O)CSCC(=O)NC(Cc2ccc(O)cc2)C(=O)N(C)C(C)C(=O)NC(CC(N)=O)C(=O)N2CCCC2C(=O)NC(CN)C(=O)NC(CC(C)C)C(=O)N2CC(O)CC2C(=O)NC(Cc2c[nH]c3ccccc23)C(=O)NC(CCN)C(=O)NC(Cc2cn(CC(=O)O)c3ccccc23)C(=O)N1C` (stereo not shown) [Example 11188] ({CH2CO}-Y[NMeA]NP[Dap]L[Hyp]W[Dab][X26][NMeNle][NMeNle]LCG-{NH(CH2)16COOH}; thioether N-14; configuration not given here), the IC50 worked out at 280 nM.

Still in this test, the particulars now being: inhibition of PD-1-Ig binding to PD-L1-TVMV-His; value given as range class; read-out: HTRF IC50.
Take `CCCC[C@H]1C(=O)N(C)[C@@H](CCCC)C(=O)N[C@@H](CC(C)C)C(=O)C[C@H](C(=O)NCC(=O)N[C@@H](CCC(=O)O)C(=O)NCCCOCCOCCOCCCNC(=O)CC[C@H](NC(=O)CCCCCCCCCCCCCCC(=O)O)C(=O)O)CSCC(=O)N[C@@H](Cc2ccc(O)cc2)C(=O)N(C)[C@@H](C)C(=O)N[C@@H](CC(N)=O)C(=O)N2CCC[C@H]2C(=O)N[C@@H](CN)C(=O)N[C@@H](CC(C)C)C(=O)N2C[C@H](O)C[C@H]2C(=O)N[C@@H](Cc2c[nH]c3ccccc23)C(=O)N[C@@H](CCN)C(=O)N[C@@H](Cc2cn(CC(=O)O)c3ccccc23)C(=O)N1C` [Example 11184]: the IC50 was 10 to 99 nM.

On to `CCCC[C@H]1C(=O)N(C)[C@@H](CCCC)C(=O)N[C@@H](CC(C)C)C(=O)C[C@H](C(=O)NCC(=O)N[C@@H](CC(=O)O)C(=O)NC[C@H](NC(=O)CCCCCCCCCCCCCCCCC(=O)O)C(=O)O)CSCC(=O)N[C@@H](Cc2ccc(O)cc2)C(=O)N(C)[C@@H](C)C(=O)N[C@@H](CC(N)=O)C(=O)N2CCC[C@H]2C(=O)N[C@@H](CN)C(=O)N[C@@H](CC(C)C)C(=O)N2C[C@H](O)C[C@H]2C(=O)N[C@@H](Cc2c[nH]c3ccccc23)C(=O)N[C@@H](CCN)C(=O)N[C@@H](Cc2cn(CC(=O)O)c3ccccc23)C(=O)N1C` [Example 11185], for which the IC50 lay within 10 to 99 nM.

With `CCCC[C@H]1C(=O)N(C)[C@@H](CCCC)C(=O)N[C@@H](CC(C)C)C(=O)N[C@H](C(=O)NCC(=O)NCC(=O)NCCCCCCCCCCCCCCCCC(=O)O)CSCC(=O)N[C@@H](Cc2ccc(O)cc2)C(=O)N(C)[C@@H](C)C(=O)N[C@@H](CC(N)=O)C(=O)N2CCC[C@H]2C(=O)N[C@@H](CN)C(=O)N[C@@H](CC(C)C)C(=O)N2C[C@H](O)C[C@H]2C(=O)N[C@@H](Cc2c[nH]c3ccccc23)C(=O)N[C@@H](CCN)C(=O)N[C@@H](Cc2cn(CC(=O)O)c3ccccc23)C(=O)N1C` [Example 11189] ({CH2CO}-Y[NMeA]NP[Dap]L[Hyp]W[Dab][Trp(1-CH2COOH)][NMeNle][NMeNle]LCGG-{NH(CH2)16COOH}; thioether N-14), the IC50 was in the range of 100 to 1600 nM.

`CCCC[C@H]1C(=O)N(C)[C@@H](CCCC)C(=O)N[C@@H](CC(C)C)C(=O)N[C@H](C(=O)NCC(=O)N[C@H](CC(=O)O)C(=O)NCCCCCCCCCCCCCCCCC(=O)O)CSCC(=O)N[C@@H](Cc2ccc(O)cc2)C(=O)N(C)[C@@H](C)C(=O)N[C@@H](CC(N)=O)C(=O)N2CCC[C@H]2C(=O)N[C@@H](CN)C(=O)N[C@@H](CC(C)C)C(=O)N2C[C@H](O)C[C@H]2C(=O)N[C@@H](Cc2c[nH]c3ccccc23)C(=O)N[C@@H](CCN)C(=O)N[C@@H](Cc2cn(CC(=O)O)c3ccccc23)C(=O)N1C` [Example 11190] ({CH2CO}-Y[NMeA]NP[Dap]L[Hyp]W[Dab][Trp(1-CH2COOH)][NMeNle][NMeNle]LCG[dD]-{NH(CH2)16COOH}; thioether N-14): the half-maximal inhibitory concentration (IC50) lay in the range of 10 to 99 nM.

For `CCCC[C@H]1C(=O)N(C)[C@@H](CCCC)C(=O)N[C@@H](CC(C)C)C(=O)N[C@H](C(=O)NCC(=O)NCC(=O)NCCCCCCCCCCCCCCCCCCC(=O)O)CSCC(=O)N[C@@H](Cc2ccc(O)cc2)C(=O)N(C)[C@@H](C)C(=O)N[C@@H](CC(N)=O)C(=O)N2CCC[C@H]2C(=O)N[C@@H](CN)C(=O)N[C@@H](CC(C)C)C(=O)N2C[C@H](O)C[C@H]2C(=O)N[C@@H](Cc2c[nH]c3ccccc23)C(=O)N[C@@H](CCN)C(=O)N[C@@H](Cc2cn(CC(=O)O)c3ccccc23)C(=O)N1C` [Example 11193] ({CH2CO}-Y[NMeA]NP[Dap]L[Hyp]W[Dab][Trp(1-CH2COOH)][NMeNle][NMeNle]LCGG-X32; thioether N-14), the concentration for half-maximal inhibition (IC50) lay within 10 to 99 nM.

For the compound `CCCC[C@H]1C(=O)N(C)[C@@H](CCCC)C(=O)N[C@@H](CC(C)C)C(=O)N[C@H](C(=O)NCC(=O)NCC(=O)NCCCCCCCCCCCCCCC(=O)O)CSCC(=O)N[C@@H](Cc2ccc(O)cc2)C(=O)N(C)[C@@H](C)C(=O)N[C@@H](CC(N)=O)C(=O)N2CCC[C@H]2C(=O)N[C@@H](CN)C(=O)N[C@@H](CC(C)C)C(=O)N2C[C@H](O)C[C@H]2C(=O)N[C@@H](Cc2c[nH]c3ccccc23)C(=O)N[C@@H](CCN)C(=O)N[C@@H](Cc2cn(CC(=O)O)c3ccccc23)C(=O)N1C` [Example 11194] ({CH2CO}-Y[NMeA]NP[Dap]L[Hyp]W[Dab][Trp(1-CH2COOH)][NMeNle][NMeNle]LCGG-{NH(CH2)14COOH}; thioether N-14), the IC50 was 10 to 99 nM.

Take `CCCC[C@H]1C(=O)N(C)[C@@H](CCCC)C(=O)N[C@@H](CC(C)C)C(=O)N[C@H](C(=O)NCC(=O)N[C@H](CC(=O)O)C(=O)NCCCCCCCCCCCCCCC(=O)O)CSCC(=O)N[C@@H](Cc2ccc(O)cc2)C(=O)N(C)[C@@H](C)C(=O)N[C@@H](CC(N)=O)C(=O)N2CCC[C@H]2C(=O)N[C@@H](CN)C(=O)N[C@@H](CC(C)C)C(=O)N2C[C@H](O)C[C@H]2C(=O)N[C@@H](Cc2c[nH]c3ccccc23)C(=O)N[C@@H](CCN)C(=O)N[C@@H](Cc2cn(CC(=O)O)c3ccccc23)C(=O)N1C` [Example 11195] ({CH2CO}-Y[NMeA]NP[Dap]L[Hyp]W[Dab][Trp(1-CH2COOH)][NMeNle][NMeNle]LCG[dD]-{NH(CH2)14COOH}; thioether N-14): the IC50 is 10 to 99 nM.

Regarding `CCCC[C@H]1C(=O)N(C)[C@@H](CCCC)C(=O)N[C@@H](CC(C)C)C(=O)N[C@H](C(=O)NCCCCCCCCCCCCCCC(=O)O)CSCC(=O)N[C@@H](Cc2ccc(O)cc2)C(=O)N(C)[C@@H](C)C(=O)N[C@@H](CC(N)=O)C(=O)N2CCC[C@H]2C(=O)N[C@@H](CN)C(=O)N[C@@H](CC(C)C)C(=O)N2C[C@H](O)C[C@H]2C(=O)N[C@@H](Cc2c[nH]c3ccccc23)C(=O)N[C@@H](CCN)C(=O)N[C@@H](Cc2cn(CC(=O)O)c3ccccc23)C(=O)N1C` [Example 11196] ({CH2CO}-Y[NMeA]NP[Dap]L[Hyp]W[Dab][Trp(1-CH2COOH)][NMeNle][NMeNle]LC-{NH(CH2)14COOH}; thioether N-14), the IC50 fell in the range of 10 to 99 nM.

As to `CCCC[C@H]1C(=O)N(C)[C@@H](CCCC)C(=O)N[C@@H](CC(C)C)C(=O)N[C@H](C(=O)NCC(=O)NCCCCCCCCCCCCCCC(=O)O)CSCC(=O)N[C@@H](Cc2ccc(O)cc2)C(=O)N(C)[C@@H](C)C(=O)N[C@@H](CC(N)=O)C(=O)N2CCC[C@H]2C(=O)N[C@@H](CN)C(=O)N[C@@H](CC(C)C)C(=O)N2C[C@H](O)C[C@H]2C(=O)N[C@@H](Cc2c[nH]c3ccccc23)C(=O)N[C@@H](CCN)C(=O)N[C@@H](Cc2cn(CC(=O)O)c3ccccc23)C(=O)N1C` [Example 11197] ({CH2CO}-Y[NMeA]NP[Dap]L[Hyp]W[Dab][Trp(1-CH2COOH)][NMeNle][NMeNle]LCG-{NH(CH2)14COOH}; thioether N-14), the IC50 lay in the range of 10 to 99 nM.
